Source: patent US20240025857A1, “NEW CATECHOLAMINE PRODRUGS FOR USE IN THE TREATMENT OF PARKINSON'S DISEASE” (H. Lundbeck A/S, priority 2020, published 2024)
≈ marks a conversion by molar mass, not a printed value. Structures can show the parent of a compound that is named as a salt.

Columns and labels:
[1] = PK experiments in rats: plasma compound (I) after oral dosing of prodrug; details: for conversion to compound (I) in vivo: oral dosing, rats, Example 2
Description: (§1) The tubes were inverted gently 6-8 times to ensure thorough mixing and then placed in wet ice. The collecting tube was placed in wet ice for up to 30 minutes until centrifugation (3000 G for 10 minutes at 4° C.). Once removed from the wet ice the centrifugation was initiated immediately. Immediately after end of centrifugation the samples were returned to wet ice. Two sub-samples of 130 microL plasma were transferred to each of two appropriately labelled cryo tubes containing 6.5 microL pre-cooled formic acid (20% in water v/v) The tube lid was immediately replaced, and the plasma solution was thoroughly mixed by inverting gently 6-8 times. The plasma samples were placed on water-ice as far as possible and stored frozen at nominally −70° C. within 60 minutes after sampling.
(§2) For experiments relating to compounds (II) and (III), the above protocol was used, with the exception that K3EDTA tubes were prepared with stabilizing aqueous solution consisting of 80 microL 100 mg/mL ascorbic acid and 40 microL inhibitor solution containing 100 mg/mL citric acid, 21 mg/mL D-saccharic acid 1,4 lactone and 29 mg/mL tris-(2-carboxyethyl)phosphine (TCEP).
(§3) Plasma samples were analyzed by solid phase extraction or direct protein precipitation followed by UPLC-MS/MS. MS detection using electrospray in the positive ion mode with monitoring of specific mass-to-charge transitions for compound (I) using internal standards for correcting the response. The concentration-time data was analyzed, using standard software using appropriate noncompartmental techniques to obtain estimates of the derived PK parameters.
(§4) Han Wistar rats were supplied by Charles River Laboratories, Sulzfeld, Germany. An artificial, automatically controlled, light and dark cycle of 12 hours was maintained. The rats received a standard laboratory diet from Brogaarden (Altromin 1324 pellets). The rats had unrestricted access to the diet.
(§5) Han Wistar rats were supplied by Charles River Laboratories, UK. An artificial, automatically controlled, light and dark cycle of 12 hours was maintained. The rats received a standard laboratory diet (Teklad 2014C Diet). The rats had unrestricted access to the diet.

[2] = in man after oral dosing; extensive hepatic first-pass metabolism; cited from earlier work
[3] = Conversion to compound (I) in human liver S9; format: in vitro ADME; details: 1 μM, 4 mg/mL protein, 37° C., 0-60 minutes; compared to (Id-iia) and (Id-iib); FIG. 3
Description: The compounds (II), (III), (Id-iia), and (Id-iib) were incubated separately at 1 μM with rat and human liver S9 fraction suspended in 50 mM phosphate buffer at pH 7.4 with 5 mM MgCl2, 200 U/mL superoxide dismutase and 1 mM ascorbic acid. The human liver S9 (pool from 50 donors) and the rat liver S9 (from Wistar Han rats, pool of 240) fractions were purchased from SekisuiXenoTech, USA. The protein concentration in the incubation was 4 mg/mL. The incubations were performed in 96-well plates at 37° C. using an automated Hamilton liquid handling system with a total incubation volume of 150 microliter per well. The compounds were each incubated in triplicates in three wells per time point. The liver S9 suspensions were pre-incubated at 37° C. and the reactions started by addition of stock solutions of the test compounds to the incubation wells. The test compounds were dissolved in dimethyl sulfoxide (DMSO) and further diluted in water before spiking the stock solution into the incubation wells. […] Concentrations of compound (I) were determined after solid-phase extraction of the samples followed by LC-MS/MS analysis. The increase in concentration of compound (I) at the different time points was calculated by subtracting the concentration of compound (I) in the sample taken at time 0 from the concentrations of compound (I) in samples taken at the different time points. […]

[4] = format: in vitro ADME, Wistar Han rats; details: 1 μM, 4 mg/mL protein, 37° C., 0-60 minutes; FIG. 4
Description: The human liver S9 (pool from 50 donors) and the rat liver S9 (from Wistar Han rats, pool of 240) fractions were purchased from SekisuiXenoTech, USA. The protein concentration in the incubation was 4 mg/mL. The incubations were performed in 96-well plates at 37° C. using an automated Hamilton liquid handling system with a total incubation volume of 150 microliter per well. The compounds were each incubated in triplicates in three wells per time point. The liver S9 suspensions were pre-incubated at 37° C. and the reactions started by addition of stock solutions of the test compounds to the incubation wells. The test compounds were dissolved in dimethyl sulfoxide (DMSO) and further diluted in water before spiking the stock solution into the incubation wells. The final DMSO concentration in the incubations was 0.1%. The test compounds were incubated with liver S9 fractions for 0, 5, 10, 15, 30, 45 and 60 minutes. The incubations were terminated by transferring 100 microliter of the incubation samples to a 96-well plate containing 100 microliter of cold (approximately +4° C.) stop reagent containing 2% formic acid, 20 mg/mL ascorbic acid, 10 mg/mL citric acid and 3 mg/mL TCEP (tris(2-carboxyethyl)phosphine). After mixing, the samples were transferred to Nunc 1.0 mL cryo tubes and immediately frozen at −80° C. until analysis. Concentrations of compound (I) were determined after solid-phase extraction of the samples followed by LC-MS/MS analysis. The increase in concentration of compound (I) at the different time points was calculated by subtracting the concentration of compound (I) in the sample taken at time 0 from the concentrations of compound (I) in samples taken at the different time points.
Mass spectrometer (LC-MS/MS) Waters Acquity-Waters Xevo TQ-S. Analytical column Acquity BEH C18 50×2.1 mm, 1.7 micrometer. Mobile phase A: 0.2% formic acid in 20 mM NH4-Formate. Mobile phase B: 0.2% formic acid in acetonitrile. Gradient run from 5% B to 95% B in 3.5 minutes. Flow rate 0.6 mL/min. […]

physchem = format: physicochemical; details: aqueous buffer, thermodynamic from solid; 25 mM phosphate buffer pH 6, 24 hours rotation, saturated solution; read-out: Measured solubility at pH 6
Description: For compound (III), a sample was prepared with excess compound (III) to establish a saturated solution. 4.2 mg of compound (III) was transferred to a vial and 0.5 mL buffer (25 mM phosphate buffer, NaH2PO4/Na2HPO4, pH 6) was added. The sample was mixed by rotation for 24 hours. pH of the sample was measured at t=0 (prior to rotation) and at t=24 h (after 24 h of rotation). Subsequently, some of the sample was filtered with 0.22 micrometer polyvinylidene difluoride filter, first few drops discarded, and content of dissolved compound (III) was quantified by reverse phased HPLC (C18, 3.5 micrometer, 4.6×150 mm column) with eluent 20 mM ammonium buffer pH 2.4 with methanol, 80:20.
The remaining undissolved material was extracted, and air dried for approximately 20 minutes on a metal plate prior to analysis by X-ray powder diffractogram (XRPD). XRPD diffractograms were obtained on a PANalytical X'Pert PRO X-Ray Diffractometer using CuKa1 radiation (λ=1.5406 Å). The samples were measured in reflection mode in the 2θ-range 3-39.9° using an X'celerator detector.

[5] = male, Han Wistar, rat, in vivo, po
Description: as §1, §2, §3, §4, §5

Compound	conversion to compound (I) in human liver S9 fraction [3]	conversion to compound (I) in rat liver S9 [4]	conversion to compound (I) in vivo [1]	solubility at 24 h (physchem) [µg/mL]	also measured
CCCN1CCC[C@@H]2Cc3c(ccc(OC(=O)C(C)(C)C)c3OC(=O)C(C)(C)C)C[C@H]21 [(Ic)]	–	–	–	–	plasma concentrations of compound (I) ([1]; oral administration of the prodrug, Wistar rats, in words): extremely low
CCCc1cc2c(s1)CN[C@@H]1CCc3cc(OC(C)=O)c(OC(C)=O)cc3[C@@H]21 [Adrogolide]	–	–	–	–	oral bioavailability [2]: ~4%
CCCN1CCC[C@@H]2Cc3c(ccc(OS(N)(=O)=O)c3O)C[C@H]21 [Compound (II), (4aR,10aR)-6-hydroxy-1-propyl-1,2,3,4,4a,5,10,10a-octahydrobenzo[g]quinolin-7-yl sulfamate]	increased conversion to compound (I)	is converted to compound (I)	converted to compound (I) in vivo	–	–
CCCN1CCC[C@@H]2Cc3c(ccc(O)c3OS(N)(=O)=O)C[C@H]21 [Compound (III), (4aR,10aR)-7-hydroxy-1-propyl-1,2,3,4,4a,5,10,10a-octahydrobenzo[g]quinolin-6-yl sulfamate]	increased conversion to compound (I)	is converted to compound (I)	converted to compound (I) in vivo	890 (≈ 2610 µM)	–
CCCN1CCC[C@@H]2CC3=C(CCCC3=O)C[C@H]21 [Compound (Ia)]	–	–	–	–	AUC0-24 [5]: 13.6 ng·h/mL; Cmax [5]: 3.16 ng/mL; Tmax ([5]; 0.3 mg/kg): 1.0 h; Exposure at 24 h ([5]; 24 h): 48 ± 26 pg/mL
CCCN1CCC[C@@H]2Cc3c(ccc(OS(=O)(=O)O)c3O)C[C@H]21 [Compound (Id-iib), (4aR,10aR)-6-hydroxy-1-propyl-1,2,3,4,4a,5,10,10a-octahydrobenzo[g]quinolin-7-yl hydrogen sulfate]	–	is converted to compound (I)	–	37	–
